Patent publication US4652560A, “A-deoxy-a-aza derivatives of clavulanic acid, a process for their preparation and their use” (Beecham Group p.l.c., priority 1979, dated 1987)

Test system: E coli JT39
Experiment: Antibacterial Activity, standard MIC test
Type: cell-based
Conditions: Escherichia coli, compound alone
Text: Using conventional methods the following results were obtained in a standard MIC test: […]

SMILES: O=C(O)CCCCCCCCCCNC/C=C1\O[C@@H]2CC(=O)N2[C@H]1C(=O)O [11 (b), 9-N-(10'-Carboxydecyl)aminodeoxyclavulanic acid]
- MIC: > 500 µg/mL
